Results published in US20260284071A1, “CONTROLLING HOMEOSTATIC REGULATORY CIRCUITRY IN HYPOTHALAMUS” (The Johns Hopkins University, priority 2021, published 2026).
“Also recorded” adds a separate entry of the source.

Legend:
Shh signaling [1] = conditions: Nfia/b/x-deficient mice
Description: 10 μg/g Cyclopamine was injected from P8 to P16 on alternative days. 100 μg/g body weight BrdU was injected together from the 3rd injection for 5 consecutive days. Control mice were treated with the corresponding vehicle solution.
All cell counts were performed blindly and manually by five independent observers using Fiji/ImageJ software. […] Initially, cell numbers were normalized by the size (mm) of hypothalamic nuclei measured. […] All values are expressed as mean±S.E.M. Comparisons were analyzed by two-tailed Student's t-test using Microsoft Excel unless stated otherwise. A p-value of <0.05 was considered statistically significant.

[2] = cited from earlier work
Shh signaling [3] = assay: Activation of Shh signaling with SAG in juvenile control Rax-CreER;CAG-lsl-Sun1-GFP mice: tanycyte-derived neurogenesis; conditions: juvenile mice (P10-12), 10 mg/kg i.p.
Description: Vehicle controls were performed in parallel. To quantify levels of tanycyte proliferation and neurogenesis, 50 mg/kg 5-Ethynyl-2′-deoxyuridine (EdU) was delivered via three once-daily i.p. injections beginning on the first day of treatment. Four days after the final treatment at P16, immunohistochemistry was performed on 25 μm hypothalamic brain sections to quantify the levels of tanycyte proliferation and tanycyte-derived neurogenesis. The number of Edu+/GFP+/HuC/D+ tanycyte-derived neurons in the DMN, VMN, ArcN, and ME of the hypothalamus were then quantified.
• 1) Dissolved in 5 mg Sag with 1 ml of 1×PBS. • 2) Dilute stock to 1 ug/1 ul stock in 1×PBS that is 200 ul of 5 mg/ml stock into 800 ul of 1× PBS. • 3) if animal is 10 g then it will get 10 ug per gram so that is 100 ug/100 ul of 1 ug/1 ul stock.

leptin receptor Lepr = assay: Leptin injection: pStat3 induction in tanycyte-derived neurons of Nfia/b/x-deficient mice; format: in vivo; conditions: P90 fasted mice, 3 mg/kg i.p., 45 minutes
Description: At P45, 4.4% of tanycyte-derived neurons in the GABA_2 cluster expressed the leptin receptor Lepr (FIG. 5B), despite Lepr being essentially undetectable in tanycytes themselves, as previously reported (19). As a result, it was tested whether tanycyte-derived neurons were capable of responding to leptin signaling. P90 mice that had undergone an overnight fast were injected i.p. with 3 mg/kg leptin, and sacrificed after 45 minutes, providing sufficient time for leptin-responsive neurons throughout the hypothalamus to induce pStat3 immunoreactivity (35, 36). […] A total of 42.3 (2.5) % of parenchymal tanycyte-derived neurons in DMH and ArcN show pStat3 induction under these conditions, along with 22.3 (±3.9) % of tanycyte-derived neurons in the subventricular region (FIG. 5J), confirming that a subset of tanycyte-derived neurons are leptin-responsive.
After brief washing with 1×PBS to remove the antifreeze solution, sections were mounted on Superfrost Plus slides (Fisher Scientific) before starting the immunohistochemistry and dried at room temperature for 30 min. To ensure adequate fixation for nuclear staining, sections were immersed into the fixative solution for 10 min at this point. Antigen retrieval was performed by incubating the slides with the prewarmed sodium citrate buffer (10 mM sodium citrate, pH 6.0) in an 80° C. water bath for 30 min. […] After finishing the first round of immunostaining, the fluorescence signal was crosslinked by incubation in 2% PFA for 10 min, followed by either EdU staining using the Click-iT EdU detection kit conjugated with Alexa Fluor 647 (ThermoFisher #C10340) or BrdU antibody staining. […]
P45 male mice were exposed to ambient heat (38° C.) for 4 hours (67) by incubating in a prewarmed light-controlled cabinet in the rodent metabolism core facility at the Center for Metabolism and Obesity Research of the Johns Hopkins University School of Medicine. During the procedure, mice were provided ad libitum access to water and food and carefully monitored. […]

[4] = 10 μg/g i.p. every 2 days P8-P16, compared to vehicle controls

CC1=C2C[C@H]3[C@@H](CC=C4C[C@@H](O)CC[C@@]43C)[C@@H]2CC[C@]12O[C@@H]1C[C@H](C)CN[C@H]1[C@H]2C [Cyclopamine]
numbers of GFP/NeuN double-positive neurons in VZ and HP (Shh signaling [1]; [4]): significant reduction
numbers of total GFP-positive cells in ventricular zone (VZ) and hypothalamic parenchyma (HP) (Shh signaling [1]; [4]): significant reduction
BrdU incorporation (Shh signaling [1]; BrdU daily P12-P16, compared to vehicle controls): only significantly different in parenchymal neurons
neurogenesis (FIG. 4C) (Shh signaling [1]; i.p.): inhibits neurogenesis
blood-brain barrier permeability [2]: blood-brain barrier-permeable

CNC1CCC(N(Cc2cccc(-c3ccncc3)c2)C(=O)c2sc3ccccc3c2Cl)CC1 (stereo not drawn) [SAG]
blood-brain barrier permeability [2]: efficiently cross the blood-brain barrier
tanycyte proliferation as cause of the increase (Shh signaling [3]): does not appear to be due to stimulating tanycyte proliferation
number of tanycyte-derived neurons (Shh signaling [3]; 3 daily injections): increase, including significant increases

O=C1C2CN(Cc3ccc(Cl)cc3)CCN2C(=O)N1OC(=O)N1CCOc2ccccc21 (stereo not drawn) [ABC99, 7-(4-Chlorobenzyl)-1,3-dioxohexahydroimidazo[1,5-a]pyrazin-2(3H)-yl 2,3-dihydro-4Hbenzo[b][1,4]oxazine-4-carboxylate]
blood-brain barrier permeability [2]: blood-brain barrier-permeable; also recorded: efficiently cross the blood-brain barrier

B1: leptin: Recombinant Murine Leptin (PeproTech #450-31) (protein, UniProt P41160 22-167, looked up)
Leptin: VPIQKVQDDTKTLIKTIVTRINDISHTQSVSAKQRVTGLDFIPGLHPILSLSKMDQTLAVYQQVLTSLPSQNVLQIANDLENLRDLLHLLAFSKSCSLPQTSGLQKPESLDGVLEASLYSTEVVALSRLQGSLQDILQQLDVSPEC
pStat3 immunoreactivity in GFP-positive tanycyte-derived neurons (leptin receptor Lepr): Robust induction
parenchymal tanycyte-derived neurons in DMH and ArcN showing pStat3 induction (leptin receptor Lepr): 42.3 (2.5) %
tanycyte-derived neurons in the subventricular region showing pStat3 induction (leptin receptor Lepr): 22.3 (±3.9) %
